For one assay, the system named is KI cells. In words: In vitro cytotoxicity (WST-1 cell viability) assay. The class given is cell-based. The following applies: Mus musculus, 72 h, 3 days continuous drug treatment. The procedure:
All cells were cultured at 37° C., 5% C02, and 95% humidity.
The KI Cells were seeded into 96-well plates at a density of 5000 cells per well. 24 hrs later, the medium was replaced by fresh medium containing TA-PEG-Gem and Gem at the indicated concentration (range, 0-500 μM), respectively. All experimental incubation conditions were performed at least in triplicate. Cell viability was determined after 3 days of continuous drug treatment using the WST-1 cell cytotoxicity assay (Roche, Basel, Switzerland) following the manufacturer's instruction. Briefly, 10 μl WST-1 reagent was added in each well followed by additional incubation for 4 h. The absorbance at 440 nm was measured using a microplate reader. IC50 was calculated using GraphPad Prism 7.03 software (GraphPad Software, San Diego, CA).

Another assay has as its system KI tumor. Nature of the assay: Treatment efficacy in KI xenograft model. In kind it is in vivo, mouse. Conditions: for median survival: KI mice. The procedure: A KI xenograft model was used to monitor tumor growth trends and treatment efficacy of CuNPs-ECL1i-Gem. 10 days after tumor implantation, mice were randomized into 5 groups (n=5/group): (1) CuNPs-ECL1i-Gem (Cu mass: 10 mg/kg body weight, Gem: 3.4±0.8 mg/kg body weight, I.V. injection, twice per week); (2) CuNPs-ECL1i (same CuNPs-NT dose as (1), I.V. injection, twice per week); (3) gemcitabine 7 mg/kg body weight (I.V. injection, twice per week); (4) gemcitabine 100 mg/kg body weight (I. P. injection, once per week); (5) saline (100 μL, I.V. injection, twice per week). For the 2nd treatment study, the mice started dose administration at 7 days post implantation. The dose regimens of CuNPs-NT-Gem and CuNPs-ECL1i-Gem were the same as the 1st treatment study. The Cu mass was limited to a dosage of 10 mg/kg for all nanoparticle groups, and the relative loaded gemcitabine dose was 3.4±0.8 mg/kg body weight. […] Tumor volume was calculated as (length×width2)/2. The treatment was continued for 6 successive weeks or until the mice died or were sacrificed and deemed as dead when their tumor volume reached over 2000 mm^3. After treatment, the tumors were collected for H&E staining.

As for `Nc1ccn([C@@H]2O[C@H](CO)[C@@H](O)C2(F)F)c(=O)n1` [Gem, gemcitabine], it took 19.7 µM to reach half-maximal inhibition in the assay on KI cells (IC50). The median survival in the assay with KI tumor (start day 10, high dose 100 mg/kg I.P. once per week) worked out at 26 days; in the assay on KI tumor (start day 10, low dose 7 mg/kg I.V. twice per week) it was 25 days. For the same molecule, the “tumor growth effect compared to saline” value is “did not show any treatment benefit” in the assay with KI tumor (start day 10, high dose 100 mg/kg I.P.) and “did not show any treatment benefit” in the assay with KI tumor (start day 10, low dose 7 mg/kg I.V.).

The record behind these values is patent US20230381349A1, “METHODS AND COMPOSITIONS FOR IMAGING AND TREATING CANCER” (WASHINGTON UNIVERSITY, priority 2020, published 2023).
